Experimental findings from patent publication EP4759814A1, “TRICYCLIC COMPOUND AND USE THEREOF AS MAT2A INHIBITOR” (SK Biopharmaceuticals Co., Ltd., priority 2023, dated 2025) are described below.

The target of assay [1] is T1, MAT2A (Homo sapiens, UniProt P31153).
T1 construct: purchased BPS Bioscience (USA) 71401
Put plainly: MAT2A inhibitory activity, colorimetric phosphate detection (PiColorLock) enzyme assay. It is filed as biochemical. The note with it: Test Condition 1 or 2 (not stated which per compound); absorbance at 630 nm. As for the experimental part: In vitro assay: Methionine and adenosine triphosphate (ATP) are converted into S-adenosylmethionine (SAM) and inorganic phosphate (pi) via the catalytic action of methionine adenosyltransferase 2A (MAT2A). The produced pi is detected by the PiColorLock™ Phosphate Detection Reagent, which is a colorimetric assay, and the activity of MAT2A can be evaluated according to the amount of pi generated during the enzyme reaction. Each compound was evaluated under Test Condition 1 or 2 as described below.
• Concentration of MAT2A inhibitor: maximum concentration of 50 µM, 5-fold dilution (7 groups in total) • MAT2A concentration: 12 ng/µL • ATP and Met concentration: 100 µM, 80 µM
• Concentration of MAT2A inhibitor: maximum concentration of 1 µM, 3-fold dilution (7 groups in total) • MAT2A concentration: 4 ng/µL • ATP and Met concentration: 300 µM, 150 µM • Reagents: Methionine (catalog number M5308) and ATP (catalog number A2383) were purchased from Sigma-Aldrich (USA). MAT2A (catalog number 71401) was purchased from BPS Bioscience (USA), and PiColorLock™ Phosphate Detection Reagent (catalog number 303-0030) was purchased from Novus (USA).
Assay buffer composition: 50 mM Tris-HCl pH 8.0, 50 mM KCI, 15 mM MgCl2, 0.3 mM EDTA, 0.005 % (w/v) BSA
Experimental procedure: Each compound was diluted 5-fold or 3-fold based on the maximum concentration (5 mM or 1 mM or 0.1 mM) using DMSO. The diluted compounds were diluted 20-fold using assay buffer, and then mixed at a volume ratio of 1:2 with MAT2A (30 ng/µL or 10 ng/µL) diluted with assay buffer and treated for 30 minutes at room temperature. The negative control group is a group untreated with both the MAT2A enzyme and the compound according to an embodiment of the present application, and the positive control group is a group treated only with the MAT2A enzyme and untreated with the compound according to an embodiment of the present application.
In each well of a 384-well plate, 30 µL of the mixed solution and 20 µL of a 1:1 mixed solution of ATP (0.5 mM or 1.5 mM) and Met (0.4 mM or 0.75 mM) were mixed and then treated for 1 hour at room temperature. After the enzyme reaction, 13 µL of a 100:1 mixed solution of PiColorLockTM and Accelerator was treated in each well and reacted for 5 minutes at room temperature. After treating 5 µL of Stabilizer in each well and reacting for 25 minutes at room temperature, the absorbance at 630 nm was measured using SpectraMax M4 (Molecular Devices, USA) to calculate the IC50 value of the compound.
Analysis method: The enzyme activity (%) of each experimental group was calculated as {(average O.D. of compound-treated group - average O.D. of negative control group)/(average O.D. of positive control group - average O.D. of negative control group)} * 100. After preparing a dose-response curve (4-parameter) using the enzyme activity according to the treatment concentration of each compound in GraphPad Prism 9, the 50 % of enzyme inhibitory activity value (IC50) was calculated through non-linear regression analysis. The IC50 results measured for the MAT2A activity inhibitory ability of the compounds according to an embodiment of the present application are shown in Table 2 (+++: more than 1 to 100 nM, ++: more than 100 to 1,000 nM, +: more than 1,000 to 10,000 nM, -: more than 10,000 nM).

In assay [2] the test system is HCT116 (MTAP del) cell line. Put plainly: Cell proliferation inhibition in MTAP-deficient cancer cells, WST-1 assay. Format: cell-based. The note with it: maximum concentration 10 µM, read-out: HCT116 MTAP^-/- (IC50, cell proliferation inhibited by 50%). As for the experimental part:
(§1) The HCT116 (MTAP del) cell line, which is a colorectal cancer cell line with deletion of MTAP gene, was treated with a compound according to an embodiment of the present application as a MAT2A inhibitor, and after culturing for 120 hours, the change in the number of cells was measured with a WST-1 assay reagent. The WST-1 assay is an assay that measures the number of cells by measuring the generation of a chromogenic substance called formazan from tetrazolium salts by intracellular mitochondrial dehydrogenase. In addition, as a control group, a wild-type colorectal cancer HCT116 (MTAP WT) cell line containing the MTAP gene was used to perform the experiment in the same manner as the experimental group.
(§2) Cell lines and reagents: HCT116 (MTAP WT (catalog number HD PAR-034), MTAP del (catalog number HD R02-033)) cell lines were purchased from Horizon Discovery (USA), and RPMI1640 medium (catalog number 22400-093), FBS (Fetal Bovine serum, catalog number 16000044), and Penicillin/Streptomycin (catalog number 15140-122) were purchased from GIBCO (USA). WST-1 (catalog number EZ-BULK150) was purchased from Dogen (Korea).
(§3) Experimental procedure: HCT116 (MTAP WT, MTAP del) cell lines were dispensed into a 96-well plate at a concentration of 1,000 cells/well in RPMI1640 culture medium containing 10% FBS and 1% Penicillin/Streptomycin, and allowed to attach for 24 hours. When the cells were attached to the plate, the drug was diluted 4-fold from a maximum concentration of 10 µM and treated on the cells. After 120 hours of drug treatment, 20 µL of WST-1 solution was treated for 2 hours, and absorbance at 450 nm was measured using SpectraMax M4 (Molecular Devices). Data analysis was calculated by taking the DMSO control group value as 100%. For the IC50 value, the concentration at which cell proliferation is inhibited by 50% was calculated through interpolation using a 4-parameter fit of the dose-response curve using the GraphPad Prism 8.4.3 program. The cancer cell proliferation inhibitory ability and selectivity in MTAP-deficient cancer cells of the compounds according to an embodiment of the present application are described in Table 3 (+++: 1 to 100 nM, ++: more than 100 to 1,000 nM, +: more than 1 to 10 µM, -: more than 10 µM).
On the technique in general: Tetrazolium assays rely on reduction of a dye to a coloured formazan, in cell work by metabolically active cells.

Assay [3] has as its system HCT116 (MTAP WT) cell line. Kind of assay: Cell proliferation inhibition in wild-type control cells, WST-1 assay. Conditions: maximum concentration 10 µM, read-out: HCT116 WT (IC50, cell proliferation inhibited by 50%). Format: cell-based. As for the experimental part:
as §1, §2, §3

[4] abbreviates: Homo sapiens, HCT-116, 120 hours of drug treatment.

The structures appear in SMILES notation. pIC50: −log10 of the molar value. Read-outs that look alike come from different tables or passages of the source.

T1 sequence (P31153 whole entry): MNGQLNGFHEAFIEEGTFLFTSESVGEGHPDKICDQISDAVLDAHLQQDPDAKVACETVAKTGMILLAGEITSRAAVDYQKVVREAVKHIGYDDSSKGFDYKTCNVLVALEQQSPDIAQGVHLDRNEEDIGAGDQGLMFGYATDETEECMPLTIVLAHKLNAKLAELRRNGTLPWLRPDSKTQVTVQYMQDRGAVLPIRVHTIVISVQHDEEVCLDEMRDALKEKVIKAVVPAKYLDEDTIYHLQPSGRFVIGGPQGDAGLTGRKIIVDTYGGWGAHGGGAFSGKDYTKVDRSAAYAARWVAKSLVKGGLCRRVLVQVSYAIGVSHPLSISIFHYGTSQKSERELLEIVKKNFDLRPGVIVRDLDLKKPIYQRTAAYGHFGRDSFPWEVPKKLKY

In the case of `Cc1cc2c(cc1Cl)n(-c1ccccc1C)c(=O)c1nccn12` [Example 73, 7-chloro-8-methyl-5-(o-tolyl)imidazo[1,2-a]quinoxalin-4(5H)-one], the pIC50 in assay [1] was 6.00 to 7.00; in assay [2] (setting [4]), 6.00 to 7.00; in assay [3] (setting [4]), less than 5.00.
In the case of `Cc1ncccc1-n1c(=O)c2nc(N(C)C)c(C)n2c2cc(Cl)c(C(F)(F)F)cc21` [Example 100, 8-chloro-2-(dimethylamino)-1-methyl-5-(2-methylpyridin-3-yl)-7-(trifluoromethyl)imidazo[1,2-a]quinoxalin-4(5H)-one], the pIC50 in assay [1] is 6.00 to 7.00; in assay [2] (setting [4]) it was 6.00 to 7.00; in assay [3] (setting [4]), less than 5.00.
Consider `Cc1ncccc1-n1c(=O)c2nccn2c2c(OCC3CC3)cc(Cl)cc21` [Example 103, 7-chloro-9-(cyclopropylmethoxy)-5-(2-methylpyridin-3-yl)imidazo[1,2-a]quinoxalin-4(5H)-one], for which the pIC50 was 7.00 to 9.00 in assay [1], 7.00 to 9.00 in assay [2] (setting [4]) and less than 5.00 in assay [3] (setting [4]).
Consider `Cc1ncccc1-n1c(=O)c2ncc(Br)n2c2cc(Cl)c(Br)cc21` [Example 88, 1,7-dibromo-8-chloro-5-(2-methylpyridin-3-yl)imidazo[1,2-a]quinoxalin-4(5H)-one], for which the pIC50 in assay [1] is 6.00 to 7.00; in assay [2] (setting [4]), 6.00 to 7.00; in assay [3] (setting [4]) it was less than 5.00.
As to `Cc1c(F)cccc1-n1c(=O)c2nccn2c2ccc(C(F)(F)F)cc21` [Example 10, 5-(3-fluoro-2-methylphenyl)-7-(trifluoromethyl)imidazo[1,2-a]quinoxalin-4(5H)-one], the pIC50 in assay [1] is 7.00 to 9.00; in assay [2] (setting [4]), 7.00 to 9.00; in assay [3] (setting [4]), 6.00 to 7.00.
For the compound `COc1cc(Cl)cc2c1n1ccnc1c(=O)n2-c1cccnc1C` [Example 102, 7-chloro-9-methoxy-5-(2-methylpyridin-3-yl)imidazo[1,2-a]quinoxalin-4(5H)-one], the figures for the pIC50 in assay [1], in assay [2] (setting [4]) and in assay [3] (setting [4]) were 7.00 to 9.00, 7.00 to 9.00 and less than 5.00, respectively.
As to `O=c1c2nccn2c2ccc(Cl)cc2n1-c1ccccc1` [Example 2, 7-chloro-5-phenylimidazo[1,2-a]quinoxalin-4(5H)-one], the figures for the pIC50 in assay [1], in assay [2] (setting [4]) and in assay [3] (setting [4]) were 6.00 to 7.00, 5.00 to 6.00 and less than 5.00, respectively.
With `Cc1ccccc1-n1c(=O)c2nccn2c2ccc(Cl)cc21` (atropisomer, axis not shown; (Ra)) [Example 20, (Ra)-7-chloro-5-(o-tolyl)imidazo[1,2-a]quinoxalin-4(5H)-one], the pIC50 in assay [1], in assay [2] (120 hours of drug treatment) and in assay [3] (120 hours of drug treatment) was less than 5.00 each time.
Take `Cc1cc2c(cc1Br)n(-c1cccnc1Cl)c(=O)c1nccn12` [Example 91, 7-bromo-5-(2-chloropyridin-3-yl)-8-methylimidazo[1,2-a]quinoxalin-4(5H)-one]: the results for the pIC50 in assay [1], in assay [2] (setting [4]) and in assay [3] (setting [4]) were 7.00 to 9.00, 7.00 to 9.00 and less than 5.00, respectively.
Regarding `Cc1ncccc1-n1c(=O)c2nccn2c2ccc(Cl)cc21` [Example 33, 7-chloro-5-(2-methylpyridin-3-yl)imidazo[1,2-a]quinoxalin-4(5H)-one], the pIC50 was 7.00 to 9.00 in assay [1], 7.00 to 9.00 in assay [2] (setting [4]) and 6.00 to 7.00 in assay [3] (setting [4]).
Regarding `Cc1ccccc1-n1c(=O)c2nccn2c2ccc(Cl)cc21` (atropisomer, axis not shown; (Sa)) [Example 21, (Sa)-7-chloro-5-(o-tolyl)imidazo[1,2-a]quinoxalin-4(5H)-one], the pIC50 in assay [1] is 7.00 to 9.00; in assay [2] (120 hours of drug treatment), 7.00 to 9.00; in assay [3] (120 hours of drug treatment), less than 5.00.
As for `Cc1ncccc1-n1c(=O)c2nccn2c2ccc(C(F)(F)F)cc21` [Example 56, 5-(2-methylpyridin-3-yl)-7-(trifluoromethyl)imidazo[1,2-a]quinoxalin-4(5H)-one], the figures for the pIC50 in assay [1], in assay [2] (setting [4]) and in assay [3] (setting [4]) were 6.00 to 7.00, 7.00 to 9.00 and 5.00 to 6.00, respectively.
As for `O=c1c2nccn2c2ccc(Cl)cc2n1-c1ccccc1Br` [Example 38, 5-(2-bromophenyl)-7-chloroimidazo[1,2-a]quinoxalin-4(5H)-one], the values for the pIC50 in assay [1], in assay [2] (setting [4]) and in assay [3] (setting [4]) were 6.00 to 7.00, 7.00 to 9.00 and less than 5.00, respectively.
As for `O=c1c2nccn2c2ccc(Cl)cc2n1-c1ccccc1Cl` [Example 23, 7-chloro-5-(2-chlorophenyl)imidazo[1,2-a]quinoxalin-4(5H)-one], the pIC50 in assay [1] is 7.00 to 9.00; in assay [2] (setting [4]), 6.00 to 7.00; in assay [3] (setting [4]), less than 5.00.
For the compound `O=c1c2nccn2c2ccc(Cl)cc2n1-c1ccccc1C(F)(F)F` [Example 7, 7-chloro-5-(2-(trifluoromethyl)phenyl)imidazo[1,2-a]quinoxalin-4(5H)-one], the pIC50 was 6.00 to 7.00 in assay [1], 5.00 to 6.00 in assay [2] (setting [4]) and less than 5.00 in assay [3] (setting [4]).
Consider `Cc1cccc(F)c1-n1c(=O)c2nccn2c2ccc(Cl)cc21` [Example 52, 7-chloro-5-(2-fluoro-6-methylphenyl)imidazo[1,2-a]quinoxalin-4(5H)-one], for which the pIC50 in assay [1] was 6.00 to 7.00; in assay [2] (setting [4]), 5.00 to 6.00; in assay [3] (setting [4]), less than 5.00.
Regarding `Cc1ncccc1-n1c(=O)c2nccn2c2cc(F)c(Br)cc21` [Example 77, 7-bromo-8-fluoro-5-(2-methylpyridin-3-yl)imidazo[1,2-a]quinoxalin-4(5H)-one], the pIC50 in assay [1] was 7.00 to 9.00; in assay [2] (setting [4]), 7.00 to 9.00; in assay [3] (setting [4]), 5.00 to 6.00.
In the case of `Cc1c(Cl)cccc1-n1c(=O)c2nccn2c2ccc(Cl)cc21` [Example 11, 7-chloro-5-(3-chloro-2-methylphenyl)imidazo[1,2-a]quinoxalin-4(5H)-one], the results for the pIC50 in assay [1], in assay [2] (setting [4]) and in assay [3] (setting [4]) were 6.00 to 7.00, 7.00 to 9.00 and 6.00 to 7.00, respectively.
